Assay results as given in the supplement of paper PMC11451515.

Key:
Settings in all cases: 48 h
[1] = tested on: SEM cells; experiment: cell viability relative to DMSO control; higher = less cytotoxic
Procedure, shortened: (§1)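 NOMO1, SEM and P12-Ichikawa leukemia cells spent at least four passages adapting to each medium before use. They were seeded at 500 cells/well (NOMO1, SEM) or 1000 cells/well (P12-Ichikawa) in 5 μl in 1536-well plates and pin-dosed with library compounds in DMSO at 11 threefold steps from 47 μM down to 0.79 nM. After 48 h at 37°C, CellTiter-Glo One luminescence was read. Viability is reported as a percentage of the DMSO wells on each plate, with cell-free wells as background.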

[2] = tested on: P12-Ichikawa; experiment: AUC of viability dose-response curve (% viability x log10 dose units); higher = less sensitive
Procedure, shortened: (§2)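 Leukemia cells adapted to each medium (500 or 1000 cells/well, 1536-well plates) were exposed to library compounds in DMSO for 48 h at 37°C at 11 threefold doses, 47 μM to 0.79 nM. Luminescence by CellTiter-Glo One was normalised per plate to DMSO and cell-free wells, then fitted with a four-parameter log-logistic curve on log10 dose. Curves above full viability were scaled and quality-control failures removed before area under the curve was integrated by trapezoidal rule.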

[3] = tested on: SEM cells; experiment: as above
Procedure, shortened: as §2

[4] = tested on: NOMO1; experiment: cell viability relative to DMSO control; higher = less cytotoxic
Procedure, shortened: as §1

[5] = tested on: P12-Ichikawa; experiment: as above
Procedure, shortened: as §1

[6] = tested on: NOMO1; experiment: AUC of viability dose-response curve (% viability x log10 dose units); higher = less sensitive
Procedure, shortened: as §2

CNC1CCCN(c2c(F)cc3c(=O)c(C(=O)O)cn(C4CC4)c3c2OC)C1 (configuration not stated)
[1], HPLM + 10% dialyzed FBS
Settings | cell viability [%]
0.000781 µM | 120
0.00234 µM | 123
0.00702 µM | 131
0.0211 µM | 139
0.0632 µM | 134
0.19 µM | 125
0.569 µM | 133
1.71 µM | 122
5.12 µM | 115
15.4 µM | 117
46.1 µM | 113

AUC of viability dose-response curve
Settings | HPLM + 10% dialyzed FBS | RPMI 5 mM glucose + 10% FBS | RPMI 5 mM glucose + 10% dialyzed FBS
[2] | 432 | 441 | 443
[3] | 462 | 445 | 456

C[C@H](NC(=O)Cc1cc(F)cc(F)c1)C(=O)N[C@@H]1C(=O)N(C)c2ccccc2-c2ccccc21
cell viability [%]
Settings | [1] | [4] | [5]
HPLM + 10% dialyzed FBS, 0.000781 µM | 84.8 | 99 | 105
HPLM + 10% dialyzed FBS, 0.00234 µM | 106 | 107 | 118
HPLM + 10% dialyzed FBS, 0.00702 µM | 103 | 122 | 113
HPLM + 10% dialyzed FBS, 0.0211 µM | 77.7 | 126 | 116
HPLM + 10% dialyzed FBS, 0.0632 µM | 102 | 121 | 113
HPLM + 10% dialyzed FBS, 0.19 µM | 102 | 123 | 38.4
HPLM + 10% dialyzed FBS, 0.569 µM | 110 | 96.2 | 109
HPLM + 10% dialyzed FBS, 1.71 µM | 106 | 118 | 99.5
HPLM + 10% dialyzed FBS, 5.12 µM | 35.4 | 55.6 | 6.06
HPLM + 10% dialyzed FBS, 15.4 µM | 3.3 | 9.2 | 3.41
HPLM + 10% dialyzed FBS, 46.1 µM | 2.09 | 6.63 | 1.45
RPMI 5 mM glucose + 10% FBS, 0.000781 µM | 94.2 | 107 | 110
RPMI 5 mM glucose + 10% FBS, 0.00234 µM | 101 | 106 | 111
RPMI 5 mM glucose + 10% FBS, 0.00702 µM | 88.5 | 115 | 128
RPMI 5 mM glucose + 10% FBS, 0.0211 µM | 80.6 | 110 | 128
RPMI 5 mM glucose + 10% FBS, 0.0632 µM | 107 | 120 | 116
RPMI 5 mM glucose + 10% FBS, 0.19 µM | 103 | 112 | 125
RPMI 5 mM glucose + 10% FBS, 0.569 µM | 98.1 | 116 | 119
RPMI 5 mM glucose + 10% FBS, 1.71 µM | 16 | 121 | 122
RPMI 5 mM glucose + 10% FBS, 5.12 µM | 4.52 | 109 | 100
RPMI 5 mM glucose + 10% FBS, 15.4 µM | 3.08 | 27.3 | 3.68
RPMI 5 mM glucose + 10% FBS, 46.1 µM | 1.53 | 8.18 | 2.54
RPMI 5 mM glucose + 10% dialyzed FBS, 0.000781 µM | 107 | 101 | 97.7
RPMI 5 mM glucose + 10% dialyzed FBS, 0.00234 µM | 103 | 109 | 111
RPMI 5 mM glucose + 10% dialyzed FBS, 0.00702 µM | 100 | 121 | 112
RPMI 5 mM glucose + 10% dialyzed FBS, 0.0211 µM | 79.4 | 120 | 113
RPMI 5 mM glucose + 10% dialyzed FBS, 0.0632 µM | 112 | 124 | 118
RPMI 5 mM glucose + 10% dialyzed FBS, 0.19 µM | 109 | 117 | 117
RPMI 5 mM glucose + 10% dialyzed FBS, 0.569 µM | 113 | 125 | 113
RPMI 5 mM glucose + 10% dialyzed FBS, 1.71 µM | 105 | 114 | 115
RPMI 5 mM glucose + 10% dialyzed FBS, 5.12 µM | 5.44 | 125 | 84.8
RPMI 5 mM glucose + 10% dialyzed FBS, 15.4 µM | 3.49 | 63.6 | 3.93
RPMI 5 mM glucose + 10% dialyzed FBS, 46.1 µM | 2.01 | 13.8 | 1.82

AUC of viability dose-response curve
Settings | HPLM + 10% dialyzed FBS | RPMI 5 mM glucose + 10% FBS | RPMI 5 mM glucose + 10% dialyzed FBS
[3] | 373 | 309 | 362
[6] | 386 | 417 | 434
